Data: ChEMBL document CHEMBL4732222, “Discovery of novel Hsp90 C-terminal domain inhibitors that disrupt co-chaperone binding” (Bioorg Med Chem Lett, 2021)

What was measured:
[1] = biological target: T1, Heat shock protein HSP90 (Homo sapiens, UniProt P07900+P08238); experiment: Binding affinity to recombinant human N-terminal GST-tagged HSP90-CTD assessed as induction of fluorescence quenching at 1 mM by fluorescence spectroscopic analysis relative to control; assay type: protein assay
[2] = organism: Homo sapiens; experiment: Inhibition of recombinant biotin-labelled HSP90/GST-labelled PPID interaction (unknown origin) at 500 uM by Alphascreen assay relative to control
[3] = Inhibition of recombinant biotin-labelled HSP90/GST-labelled PPID interaction (unknown origin) by Alphascreen assay; parameters: species or system Homo sapiens
[4] = biological target: T1, Heat shock protein HSP90; experiment: Binding affinity to recombinant human N-terminal GST-tagged HSP90-CTD by fluorescence spectroscopic analysis; assay type: protein assay
[5] = Binding affinity to GST (unknown origin) by fluorescence spectroscopic analysis; assay type: ADME, Homo sapiens

Compound | Activity [1] [%] | inhibition [2] [%] | further results
NC(Cc1c[nH]c2ccc(OCc3ccccc3)cc12)C(=O)O (centres undefined) | > 30 | > 60 | IC50 [3]: 220 µM; Kd [4]: 28 µM; Kd [5]: 83 µM
Cc1cc2oc(=O)cc(C)c2cc1NC(=O)CCCCl | – | > 60 | –
CC(C)CCn1c(NCCO)nc2c1c(=O)[nH]c(=O)n2C | > 30 | – | –
Cc1nc(CC(=O)c2ccc(O)c(O)c2O)cs1 | > 30 | > 60 | IC50 [3]: 35 µM; Kd [4]: 102 µM; Kd [5]: 310 µM
COc1ccc2[nH]c3c(c2c1)CCNC3c1cccc(O)c1 (centres undefined) | – | > 60 | –
COc1ccc(C(=O)Nc2ccccc2C(=O)NCCC(=O)O)cc1 | > 30 | – | –
CCOC(=O)c1cnc2ccc(OC)cc2c1Nc1ccccc1C(=O)O | > 30 | – | –
CCCCC(NC/C(=C(/C)O)c1cc2c(c(=O)o1)CCCC2)C(=O)O (centres undefined) | – | > 60 | –
COc1ccc(C(=O)Nc2ccccc2C(=O)N[C@H](C(=O)O)C(C)C)cc1 | > 30 | – | –
O=C(O)C1Cc2c([nH]c3ccccc23)C(c2c(O)ccc3ccccc23)N1 (centres undefined) | – | > 60 | –
Cc1cc(O)c2c(=O)c(-c3csc(C)n3)coc2c1 | – | > 60 | –
